# Experimental data reported in paper PMC11614110, “Crystal structure of a short-chain dehydrogenase from Burkholderia cenocepacia J2315 in complex with NADP^+ and benzoic acid” (Acta Crystallographica Section F: Structural Biology …, 2024).
# T1: BcSDR (short-chain dehydrogenase reductase from B. cenocepacia J2315) (Burkholderia cenocepacia, UniProt B4EFS5)
# T1 construct: gene BCAM2128; vector pBG1861; expressed in E. coli BL21(DE3) R3 Rosetta; homodimer
# T1 sequence (B4EFS5 1-237): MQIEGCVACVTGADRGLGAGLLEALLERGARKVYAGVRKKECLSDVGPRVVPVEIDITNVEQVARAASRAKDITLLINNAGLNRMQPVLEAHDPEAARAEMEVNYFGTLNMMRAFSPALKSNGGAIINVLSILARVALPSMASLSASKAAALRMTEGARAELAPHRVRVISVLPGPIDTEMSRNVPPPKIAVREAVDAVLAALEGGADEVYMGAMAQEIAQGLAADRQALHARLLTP
# Tests used:
# [1] = target: T1, BcSDR (short-chain dehydrogenase reductase from B. cenocepacia J2315); assay: X-ray crystal structure, […] A; assay type: binding; settings: pH 4.2, 290 K
# [2] = target: the molecule itself; assay: crystal structure; sitting-drop vapor diffusion, 290 K; 23.45 mg/ml protein, 5 mM NADP+; 40% PEG 300, 100 mM sodium phosphate dibasic/citric acid pH 4.2; space group P212121, two molecules per asymmetric unit; dimer assignment supported by PDBePISA
molecule,measurement,setting,value
NC(=O)c1ccc[n+]([C@@H]2O[C@H](COP(=O)(O)OP(=O)(O)OC[C@H]3O[C@@H](n4cnc5c(N)ncnc54)[C@H](OP(=O)(O)O)[C@@H]3O)[C@@H](O)[C@H]2O)c1 [NADP^+],"X-ray crystal structure, 1.40 A","[1]; 5 mM NADP+ in co-crystallization drop, coenzyme site, both chains",The structure of BcSDR showed clear electron density for NADP^+ in the coenzyme-binding site
O=C(O)c1ccccc1 [benzoic acid],"X-ray crystal structure, 1.40 A","[1]; not added, co-purified ligand, active site, NADP+ bound",BcSDR co-crystallized with a molecule of benzoic acid bound in the active site
"short-chain dehydrogenase reductase (SDR) from Burkholderia cenocepacia J2315 (enzyme, Burkholderia cenocepacia (strain J2315), putative short-chain dehydrogenase reductase, Burkholderia cenocepacia J2315, UniProt B4EFS5; full-length gene stated to encode amino acids 1-237; Crystallised with NADP+ and a benzoic acid ligand; a phosphate ion lies at the dimer interface; also called BcSDR; His-BcSDR; source: Escherichia coli BL21(DE3) R3 Rosetta, purified (Ni2+ IMAC, SEC on Superdex 75); not shown: His6, N-terminal, kept) MQIEGCVACVTGADRGLGAGLLEALLERGARKVYAGVRKKECLSDVGPRVVPVEIDITNVEQVARAASRAKDITLLINNAGLNRMQPVLEAHDPEAARAEMEVNYFGTLNMMRAFSPALKSNGGAIINVLSILARVALPSMASLSASKAAALRMTEGARAELAPHRVRVISVLPGPIDTEMSRNVPPPKIAVREAVDAVLAALEGGADEVYMGAMAQEIAQGLAADRQALHARLLTP",binding result,[2],binds
